Our source for the EC50 values is patent publication US8735398B2 (Bristol-Myers Squibb Company, priority 2009, dated 2014).

This assay concerns HCV 1b genotype. The experiment in a line: HCV replicon assay (HCV-neo replicon cells, wild-type). The assay is classed as cell-based, Hepatitis C virus. As to conditions: Hepatitis C virus, HCV 1b genotype replicon. Summed up:
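Inhibition was tested in replicon-bearing cells, both wild-type HCV-neo and lines with NS5A resistance substitutions, using the O'Boyle et al. 2005 replicon method or luciferase-reporter formats.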

Where [1] appears, read: class symbol, read-out: EC50 Range against HCV 1b.

Read-outs that look alike come from different tables or passages of the source.

Turning to `O=C(Nc1ccc(-c2nnc(-c3ccc(NC(=O)[C@@H]4CCCN4C(=O)Cc4ccccc4)cc3)o2)cc1)[C@@H]1CCCN1C(=O)Cc1ccccc1` [MS-9, (2S,2′S)-N,N′-(4,4′-(1,3,4-oxadiazole-2,5-diyl)bis(4,1-phenylene))bis(1-(2-phenylacetyl)pyrrolidine-2-carboxamide)], the half-maximal effective concentration (EC50) is 100 to 999 nM under setting [1] and 150 nM (read-out: EC50 1b).
For the compound `C[C@H](NC(=O)OCc1ccccc1)C(=O)Nc1ccc(-c2nc(CC(=O)O)oc2-c2ccc(NC(=O)[C@H](C)NC(=O)OCc3ccccc3)cc2)cc1` [OL-1, 4,5-bis[4-[[(2S)-1-oxo-2-[[(phenylmethoxy)carbonyl]amino]propyl]amino]phenyl]-2-oxazoleacetic acid], under setting [1], the EC50 fell in the range of 1000 to 10000 nM.
Take `CCOC(=O)Cc1nc(-c2ccc(NC(=O)[C@H](C)NC(=O)OCc3ccccc3)cc2)c(-c2ccc(NC(=O)[C@H](C)NC(=O)OCc3ccccc3)cc2)o1` [OL-1d, 4,5-bis[4-[[(2S)-1-oxo-2-[[(phenylmethoxy)carbonyl]amino]propyl]amino]phenyl]-2-oxazoleacetic acid, ethyl ester]: the EC50 under setting [1] fell in the range of 1000 to 10000 nM.
Consider `CCOC(=O)Cc1nc(-c2ccc(NC(=O)[C@@H]3CCCN3C(=O)OCc3ccccc3)cc2)c(-c2ccc(NC(=O)[C@@H]3CCCN3C(=O)OCc3ccccc3)cc2)o1` [OL-2, 4,5-bis[4-[[[(2S)-1-[(phenylmethoxy)carbonyl]-2-pyrrolidinyl]carbonyl]amino]phenyl]-2-oxazoleacetic acid, ethyl ester], for which the EC50 under setting [1] was 1000 to 10000 nM.
In the case of `O=C(O)Cc1nc(-c2ccc(NC(=O)[C@@H]3CCCN3C(=O)OCc3ccccc3)cc2)c(-c2ccc(NC(=O)[C@@H]3CCCN3C(=O)OCc3ccccc3)cc2)o1` [OL-3, 4,5-bis[4-[[[(2S)-1-[(phenylmethoxy)carbonyl]-2-pyrrolidinyl]carbonyl]amino]phenyl]-2-oxazoleacetic acid], the EC50 under setting [1] was 1000 to 10000 nM.
For `Cc1nc(-c2ccc(NC(=O)[C@H](C)NC(=O)OCc3ccccc3)cc2)c(-c2ccc(NC(=O)[C@H](C)NC(=O)OCc3ccccc3)cc2)o1` [OL-4, [(2-methyl-4,5-oxazolediyl)bis[4,1-phenyleneimino[(1S)-1-methyl-2-oxo-2,1-ethanediyl]]]bis-carbamic acid, bis(phenylmethyl) ester], the EC50 under setting [1] fell in the range of 100 to 999 nM and the EC50 (read-out: EC50 1b) was 220 nM.
For the compound `Cc1nc(-c2ccc(NC(=O)[C@@H]3CCCN3C(=O)OCc3ccccc3)cc2)c(-c2ccc(NC(=O)[C@@H]3CCCN3C(=O)OCc3ccccc3)cc2)o1` [OL-5, (2S,2′S)-2,2′-[(2-methyl-4,5-oxazolediyl)bis(4,1-phenyleneiminocarbonyl)]bis-1-pyrrolidinecarboxylic acid, bis(phenylmethyl) ester], under setting [1], the EC50 lay in the range of 100 to 999 nM.
For the compound `CN(C)Cc1nc(-c2ccc(NC(=O)[C@@H]3CCCN3C(=O)Cc3ccccc3)cc2)c(-c2ccc(NC(=O)[C@@H]3CCCN3C(=O)Cc3ccccc3)cc2)o1` [OL-6], the EC50 under setting [1] lay within 1000 to 10000 nM.
Regarding `O=C(Nc1ccc(-c2nc[nH]c2-c2ccc(NC(=O)[C@@H]3CCCN3C(=O)OCc3ccccc3)cc2)cc1)[C@@H]1CCCN1C(=O)OCc1ccccc1` [OL-7, (2S,2′S)-2,2′-[1H-imidazole-4,5-diylbis(4,1-phenyleneiminocarbonyl)]bis-1-pyrrolidinecarboxylic acid, bis(phenylmethyl) ester], the EC50 under setting [1] was 4.57 to 99 nM.
With `C[C@H](NC(=O)OCc1ccccc1)C(=O)Nc1ccc(-c2nc[nH]c2-c2ccc(NC(=O)[C@H](C)NC(=O)OCc3ccccc3)cc2)cc1` [OL-8, [1H-imidazole-4,5-diylbis[4,1-phenyleneimino[(1S)-1-methyl-2-oxo-2,1-ethanediyl]]]bis-carbamic acid, bis(phenylmethyl) ester], the half-maximal effective concentration (EC50) under setting [1] fell in the range of 4.57 to 99 nM.
`C[C@H](NC(=O)Cc1ccccc1)C(=O)Nc1ccc(-c2nc[nH]c2-c2ccc(NC(=O)[C@H](C)NC(=O)Cc3ccccc3)cc2)cc1` [OL-9, (2S,2′S)-N,N′-(1H-imidazole-4,5-diyldi-4,1-phenylene)bis(2-((phenylacetyl)amino)propanamide)]: the concentration giving a half-maximal response (EC50) under setting [1] is 1000 to 10000 nM.
Take `O=C(Nc1ccc(-c2nc[nH]c2-c2ccc(NC(=O)[C@@H]3CCCN3C(=O)Cc3ccccc3)cc2)cc1)[C@@H]1CCCN1C(=O)Cc1ccccc1` [OL-10, (2S,2′S)-N,N′-(1H-imidazole-4,5-diyldi-4,1-phenylene)bis(1-(phenylacetyl)-2-pyrrolidinecarboxamide)]: the half-maximal effective concentration (EC50) under setting [1] was in the range of 4.57 to 99 nM.
With `O=C(Nc1ccc(-c2nc[nH]c2-c2ccc(NC(=O)[C@@H]3C[C@@H](O)CN3C(=O)Cc3ccccc3)cc2)cc1)[C@@H]1C[C@@H](O)CN1C(=O)Cc1ccccc1` [OL-11], the EC50 under setting [1] lay within 100 to 999 nM.
Same read-out and setting: with `C[C@H](NC(=O)OCc1ccccc1)C(=O)Nc1ccc(-c2n[nH]c(=O)n2-c2ccc(NC(=O)[C@H](C)NC(=O)OCc3ccccc3)cc2)cc1` [OL-12, [(1,5-dihydro-5-oxo-4H-1,2,4-triazole-3,4-diyl)bis[4,1-phenyleneimino[(1S)-1-methyl-2-oxo-2,1-ethanediyl]]]bis-carbamic acid, bis(phenylmethyl) ester] the figure was 1000 to 10000 nM.
In the case of `O=C(Nc1ccc(-c2n[nH]c(=O)n2-c2ccc(NC(=O)[C@@H]3CCCN3C(=O)OCc3ccccc3)cc2)cc1)[C@@H]1CCCN1C(=O)OCc1ccccc1` [OL-13, (2S,2′S)-2,2′-[(1,5-dihydro-5-oxo-4H-1,2,4-triazole-3,4-diyl)bis(4,1-phenyleneiminocarbonyl)]bis-1-pyrrolidinecarboxylic acid, bis(phenylmethyl) ester,], the half-maximal effective concentration (EC50) under setting [1] lay in the range of 1000 to 10000 nM.
Same read-out and setting: the figure for `O=C(Nc1ccc(-c2nncn2-c2ccc(NC(=O)[C@@H]3CCCN3C(=O)OCc3ccccc3)cc2)cc1)[C@@H]1CCCN1C(=O)OCc1ccccc1` [OL-14, (2S,2′S)-2,2′-[4H-1,2,4-triazole-3,4-diylbis(4,1-phenyleneiminocarbonyl)]bis-1-pyrrolidinecarboxylic acid, bis(phenylmethyl) ester] is 1000 to 10000 nM; for `O=C(Nc1ccc(-c2nncn2-c2ccc(NC(=O)[C@@H]3CCCN3C(=O)Cc3ccccc3)cc2)cc1)[C@@H]1CCCN1C(=O)Cc1ccccc1` [OL-15, (2S,2′S)-N,N′-(4H-1,2,4-triazole-3,4-diyldi-4,1-phenylene)bis[1-(phenylacetyl)-2-pyrrolidinecarboxamide]] it is 1000 to 10000 nM.
Regarding `C[C@H](NC(=O)OCc1ccccc1)C(=O)Nc1ccc(-c2nncn2-c2ccc(NC(=O)[C@H](C)NC(=O)OCc3ccccc3)cc2)cc1` [OL-16, [(1S)-1-methyl-2-oxo-2-[[4-[3-[4-[[(2S)-1-oxo-2-[[(phenylmethoxy)carbonyl]amino]propyl]amino]phenyl]-4H-1,2,4-triazol-4-yl]phenyl]amino]ethyl]-carbamic acid, phenylmethyl ester], under setting [1], the concentration giving a half-maximal response (EC50) was 1000 to 10000 nM.
For `O=C(Nc1ccc(-c2nncn2-c2ccc(NC(=O)[C@@H]3C[C@@H](O)CN3C(=O)Cc3ccccc3)cc2)cc1)[C@@H]1C[C@@H](O)CN1C(=O)Cc1ccccc1` [OL-17, (2S,4R,2′S,4′R)-N,N′-(4H-1,2,4-triazole-3,4-diyldi-4,1-phenylene)bis[4-hydroxy-1-(phenylacetyl)-2-pyrrolidinecarboxamide]], the concentration giving a half-maximal response (EC50) under setting [1] was 1000 to 10000 nM.
Turning to `C[C@H](NC(=O)OCc1ccccc1)C(=O)Nc1ccc(-c2n[nH]nc2-c2ccc(NC(=O)[C@H](C)NC(=O)OCc3ccccc3)cc2)cc1` [OL-18, [(1S)-1-methyl-2-oxo-2-[[4-[4-[4-[[(2S)-1-oxo-2-[[(phenylmethoxy)carbonyl]amino]propyl]amino]phenyl]-1H-1,2,3-triazol-5-yl]phenyl]amino]ethyl]-carbamic acid, phenylmethyl ester], the EC50 is, setting by setting: under setting [1], 4.57 to 99 nM; (read-out: EC50 1b) 92 nM.
In the case of `O=C(Nc1ccc(-c2n[nH]nc2-c2ccc(NC(=O)[C@@H]3CCCN3C(=O)OCc3ccccc3)cc2)cc1)[C@@H]1CCCN1C(=O)OCc1ccccc1` [OL-19, (2S,2′S)-2,2′-[1H-1,2,3-triazole-4,5-diylbis(4,1-phenyleneiminocarbonyl)]bis-1-pyrrolidinecarboxylic acid, bis(phenylmethyl) ester], the EC50 under setting [1] lay within 4.57 to 99 nM.
For the compound `O=C(Nc1ccc(-c2n[nH]nc2-c2ccc(NC(=O)[C@@H]3CCCN3C(=O)Cc3ccccc3)cc2)cc1)[C@@H]1CCCN1C(=O)Cc1ccccc1` [OL-20, (2S,2′S)-N,N′-(1H-1,2,3-triazole-4,5-diyldi-4,1-phenylene)bis[1-(phenylacetyl)-2-pyrrolidinecarboxamide]], under setting [1], the EC50 lay in the range of 4.57 to 99 nM.
Still for that read-out and setting: the figure for `O=C(Nc1ccc(-c2n[nH]nc2-c2ccc(NC(=O)[C@@H]3C[C@@H](O)CN3C(=O)Cc3ccccc3)cc2)cc1)[C@@H]1C[C@@H](O)CN1C(=O)Cc1ccccc1` [OL-21, (2S,4R,2′S,4′R)-N,N′-(1H-1,2,3-triazole-4,5-diyldi-4,1-phenylene)bis(4-hydroxy-1-(phenylacetyl)-2-pyrrolidinecarboxamide)] is 100 to 999 nM; for `O=C(Nc1ccc(-c2ccc(-c3ccc(NC(=O)[C@@H]4CCCN4C(=O)Cc4ccccc4)cc3)s2)cc1)[C@@H]1CCCN1C(=O)Cc1ccccc1` [OL-22, (2S,2′S)-N,N′-(2,5-thienediyldi-4,1-phenylene)bis(1-(phenylacetyl)-2-pyrrolidinecarboxamide)] it is 4.57 to 99 nM; for `O=C(Nc1ccc(-c2ccc(-c3ccc(NC(=O)[C@@H]4CCCN4C(=O)OCc4ccccc4)cc3)s2)cc1)[C@@H]1CCCN1C(=O)OCc1ccccc1` [OL-23, (2S,2′S)-2,2′-[2,5-thienediylbis(4,1-phenyleneiminocarbonyl)]bis-1-pyrrolidinecarboxylic acid, bis(phenylmethyl) ester] it is 4.57 to 99 nM.
On to `CC(=O)N1CCC[C@H]1C(=O)Nc1ccc(-c2ccc(-c3ccc(NC(=O)[C@@H]4CCCN4C(C)=O)cc3)s2)cc1` [OL-24, (2S,2′S)-N,N′-(2,5-thienediyldi-4,1-phenylene)bis[1-acetyl-2-pyrrolidinecarboxamide]], for which the EC50 reads like this: under setting [1], 100 to 999 nM; (read-out: EC50 1b) 620 nM.
Consider `O=C(Nc1cccc(-c2ccc(-c3cccc(NC(=O)[C@@H]4CCCN4C(=O)Cc4ccccc4)c3)s2)c1)[C@@H]1CCCN1C(=O)Cc1ccccc1` [OL-25, (2S,2′S)-N,N′-(2,5-thienediyldi-3,1-phenylene)bis[1-(phenylacetyl)-2-pyrrolidinecarboxamide]], for which the EC50 under setting [1] lay within 4.57 to 99 nM.
